How the values were obtained:
Test in all cases: radiometric filter-binding kinase assay
AKT2 (human) = AKT2 (human) (UniProt P31751); conditions: ATP 50 µM
AURKB (human) = AURKB (human) (UniProt Q96GD4); conditions: ATP 20 µM
BRSK2 (human) = BRSK2 (human) (UniProt Q8IWQ3); conditions: ATP 50 µM
CAMKK1 (human) = CAMKK1 (human) (UniProt Q8N5S9); conditions: ATP 20 µM
CHEK1 (human) = CHEK1 (human) (UniProt O14757); conditions: ATP 20 µM
[1] = target: CSNK2A1 or CSNK2A2 (human) (UniProt P19784+P68400); conditions: ATP 5 µM
DYRK3 (human) = DYRK3 (human) (UniProt O43781); conditions: ATP 5 µM
EEF2K (human) = EEF2K (human) (UniProt O00418); conditions: ATP 5 µM
GSK3B (human) = GSK3B (human) (UniProt P49841); conditions: ATP 5 µM
HIPK2 (human) = HIPK2 (human) (UniProt Q9H2X6); conditions: ATP 5 µM
HIPK3 (human) = HIPK3 (human) (UniProt Q9H422); conditions: ATP 20 µM
MAPK11 (human) = MAPK11 (human) (UniProt Q15759); conditions: ATP 20 µM
MAPK12 (human) = MAPK12 (human) (UniProt P53778); conditions: ATP 5 µM
MAPK3 (human) = MAPK3 (human) (UniProt P27361); conditions: ATP 5 µM
MAPK8 (human) = MAPK8 (human) (UniProt P45983); conditions: ATP 20 µM
MKNK1 (human) = MKNK1 (human) (UniProt Q9BUB5); conditions: ATP 50 µM
MYLK (human) = MYLK (human) (UniProt Q15746); conditions: ATP 50 µM
NEK2 (human) = NEK2 (human) (UniProt P51955); conditions: ATP 50 µM
PAK4 (human) = PAK4 (human) (UniProt O96013); conditions: ATP 5 µM
PIM1 (human) = PIM1 (human) (UniProt P11309); conditions: ATP 20 µM
PKN2 (human) = PKN2 (human) (UniProt Q16513); conditions: ATP 5 µM
[2] = target: PRKACA or PRKACB or PRKACG (human) (UniProt P22694+P22612+P17612); conditions: ATP 20 µM
PRKCA (human) = PRKCA (human) (UniProt P17252); conditions: ATP 20 µM
[3] = test system: RPS6KB1 (human), P23443 [T412E]; conditions: ATP 20 µM
[4] = test system: SGK1 (human), O00141 [S422D]; conditions: ATP 20 µM
SRC (chicken) = conditions: ATP 50 µM, accession and sequence are those of the human protein
CDK2 CCNA2 (human) = CDK2 CCNA2 (human) (UniProt P24941+P20248); conditions: ATP 20 µM
MAPK1 (human) = MAPK1 (human) (UniProt P28482); conditions: ATP 50 µM
SRPK1 (human) = SRPK1 (human) (UniProt Q96SB4); conditions: ATP 50 µM

HIPK2 (human), sequence (Q9H2X6 whole entry, looked up): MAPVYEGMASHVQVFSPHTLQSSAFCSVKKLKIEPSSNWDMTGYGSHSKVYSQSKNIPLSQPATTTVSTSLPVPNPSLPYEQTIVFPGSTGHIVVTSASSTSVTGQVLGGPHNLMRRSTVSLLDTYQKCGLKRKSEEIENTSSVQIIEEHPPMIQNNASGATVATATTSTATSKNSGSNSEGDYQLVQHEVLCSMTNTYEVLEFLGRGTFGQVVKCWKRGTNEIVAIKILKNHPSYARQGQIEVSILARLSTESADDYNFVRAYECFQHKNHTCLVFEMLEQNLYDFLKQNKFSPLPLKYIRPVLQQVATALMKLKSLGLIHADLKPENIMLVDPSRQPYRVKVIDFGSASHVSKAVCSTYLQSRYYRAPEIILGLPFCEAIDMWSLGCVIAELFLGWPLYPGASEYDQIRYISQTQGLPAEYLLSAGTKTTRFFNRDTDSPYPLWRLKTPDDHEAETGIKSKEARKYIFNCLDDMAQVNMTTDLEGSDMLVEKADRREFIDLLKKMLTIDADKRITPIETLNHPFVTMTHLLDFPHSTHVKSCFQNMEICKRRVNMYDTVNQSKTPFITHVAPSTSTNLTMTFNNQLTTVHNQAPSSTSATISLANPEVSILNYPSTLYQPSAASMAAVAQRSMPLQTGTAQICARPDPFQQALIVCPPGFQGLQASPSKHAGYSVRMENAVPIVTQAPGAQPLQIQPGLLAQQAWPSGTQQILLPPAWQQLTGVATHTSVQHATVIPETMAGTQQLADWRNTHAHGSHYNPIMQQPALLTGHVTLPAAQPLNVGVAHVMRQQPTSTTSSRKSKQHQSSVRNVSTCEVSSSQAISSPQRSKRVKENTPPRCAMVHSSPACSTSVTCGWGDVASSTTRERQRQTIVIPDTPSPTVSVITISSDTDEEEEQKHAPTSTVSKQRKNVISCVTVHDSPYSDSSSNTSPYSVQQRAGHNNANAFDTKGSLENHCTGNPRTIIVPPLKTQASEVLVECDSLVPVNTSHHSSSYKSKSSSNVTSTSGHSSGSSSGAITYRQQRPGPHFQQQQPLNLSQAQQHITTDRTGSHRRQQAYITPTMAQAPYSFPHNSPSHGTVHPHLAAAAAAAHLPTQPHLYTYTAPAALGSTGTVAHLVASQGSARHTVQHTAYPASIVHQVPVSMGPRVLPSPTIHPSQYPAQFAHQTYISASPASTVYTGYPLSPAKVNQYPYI
EEF2K (human), sequence (O00418 whole entry, looked up): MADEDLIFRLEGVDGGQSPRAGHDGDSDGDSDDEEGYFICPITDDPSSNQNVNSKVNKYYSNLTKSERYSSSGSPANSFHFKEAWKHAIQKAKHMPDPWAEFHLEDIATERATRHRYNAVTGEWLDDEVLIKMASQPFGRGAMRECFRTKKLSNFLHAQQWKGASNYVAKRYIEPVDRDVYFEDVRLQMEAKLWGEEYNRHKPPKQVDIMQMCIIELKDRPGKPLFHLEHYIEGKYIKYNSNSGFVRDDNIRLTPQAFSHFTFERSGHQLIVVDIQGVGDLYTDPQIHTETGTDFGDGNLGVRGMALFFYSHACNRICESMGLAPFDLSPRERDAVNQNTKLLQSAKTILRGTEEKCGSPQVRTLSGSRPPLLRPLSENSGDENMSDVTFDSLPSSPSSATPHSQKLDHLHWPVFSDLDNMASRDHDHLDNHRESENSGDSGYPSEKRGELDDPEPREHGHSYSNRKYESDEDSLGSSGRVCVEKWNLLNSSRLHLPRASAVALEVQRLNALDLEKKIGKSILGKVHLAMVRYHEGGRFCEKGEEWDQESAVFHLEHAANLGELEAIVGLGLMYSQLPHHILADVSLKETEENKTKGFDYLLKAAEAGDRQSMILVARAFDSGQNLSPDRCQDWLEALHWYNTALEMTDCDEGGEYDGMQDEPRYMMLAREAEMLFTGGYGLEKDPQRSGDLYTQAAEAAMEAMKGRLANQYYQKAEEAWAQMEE
RPS6KB1 (human), P23443 [T412E], sequence (P23443 whole entry T412E, looked up): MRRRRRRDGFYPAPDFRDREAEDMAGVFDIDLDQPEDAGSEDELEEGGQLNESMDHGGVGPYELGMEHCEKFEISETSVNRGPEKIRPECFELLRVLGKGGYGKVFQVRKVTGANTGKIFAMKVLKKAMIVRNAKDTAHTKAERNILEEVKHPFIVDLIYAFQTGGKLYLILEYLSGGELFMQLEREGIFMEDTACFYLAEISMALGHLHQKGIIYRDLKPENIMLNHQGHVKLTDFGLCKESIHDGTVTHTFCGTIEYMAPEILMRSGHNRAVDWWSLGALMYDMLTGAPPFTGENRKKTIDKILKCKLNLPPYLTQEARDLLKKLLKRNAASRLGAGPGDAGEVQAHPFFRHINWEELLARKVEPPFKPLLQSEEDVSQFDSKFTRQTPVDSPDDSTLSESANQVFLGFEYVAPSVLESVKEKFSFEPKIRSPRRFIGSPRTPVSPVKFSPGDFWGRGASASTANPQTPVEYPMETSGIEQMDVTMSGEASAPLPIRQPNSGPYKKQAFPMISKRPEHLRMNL
PKN2 (human), sequence (Q16513 whole entry, looked up): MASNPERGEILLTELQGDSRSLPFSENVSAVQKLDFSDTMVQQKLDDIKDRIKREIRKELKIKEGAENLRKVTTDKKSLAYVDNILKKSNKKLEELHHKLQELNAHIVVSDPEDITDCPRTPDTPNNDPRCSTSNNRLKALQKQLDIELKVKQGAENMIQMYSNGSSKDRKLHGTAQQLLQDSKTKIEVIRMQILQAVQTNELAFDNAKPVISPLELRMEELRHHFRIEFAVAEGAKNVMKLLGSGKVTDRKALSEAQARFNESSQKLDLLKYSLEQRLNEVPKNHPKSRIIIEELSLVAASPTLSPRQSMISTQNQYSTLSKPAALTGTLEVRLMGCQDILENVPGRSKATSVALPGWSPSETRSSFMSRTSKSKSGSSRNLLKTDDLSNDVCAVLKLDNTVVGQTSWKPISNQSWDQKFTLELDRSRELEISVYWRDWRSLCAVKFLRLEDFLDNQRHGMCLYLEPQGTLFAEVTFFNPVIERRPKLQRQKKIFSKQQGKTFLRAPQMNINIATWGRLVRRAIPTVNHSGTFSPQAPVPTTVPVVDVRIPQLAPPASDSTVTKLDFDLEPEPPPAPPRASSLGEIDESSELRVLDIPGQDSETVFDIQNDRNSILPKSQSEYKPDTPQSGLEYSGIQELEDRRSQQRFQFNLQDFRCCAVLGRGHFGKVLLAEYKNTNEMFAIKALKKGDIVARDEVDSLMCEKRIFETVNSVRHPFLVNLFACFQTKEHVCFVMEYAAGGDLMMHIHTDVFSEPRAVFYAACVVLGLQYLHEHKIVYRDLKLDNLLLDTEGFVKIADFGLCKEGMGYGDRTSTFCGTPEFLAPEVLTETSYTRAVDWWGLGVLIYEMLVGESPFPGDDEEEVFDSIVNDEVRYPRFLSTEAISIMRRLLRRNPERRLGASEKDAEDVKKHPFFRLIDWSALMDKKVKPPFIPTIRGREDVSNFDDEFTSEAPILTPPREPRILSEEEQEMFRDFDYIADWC
GSK3B (human), sequence (P49841 whole entry, looked up): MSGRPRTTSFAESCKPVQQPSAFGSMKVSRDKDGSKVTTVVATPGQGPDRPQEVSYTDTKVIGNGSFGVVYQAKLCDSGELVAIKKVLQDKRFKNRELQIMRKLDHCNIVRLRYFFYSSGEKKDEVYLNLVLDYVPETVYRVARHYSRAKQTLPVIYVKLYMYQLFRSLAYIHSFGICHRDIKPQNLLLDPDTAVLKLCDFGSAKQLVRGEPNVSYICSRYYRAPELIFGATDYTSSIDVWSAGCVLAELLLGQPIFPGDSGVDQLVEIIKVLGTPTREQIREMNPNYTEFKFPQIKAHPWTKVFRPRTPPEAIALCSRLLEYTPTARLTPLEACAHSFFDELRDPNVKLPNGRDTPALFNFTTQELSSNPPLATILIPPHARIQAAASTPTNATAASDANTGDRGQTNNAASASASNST
PIM1 (human), sequence (P11309 whole entry, looked up): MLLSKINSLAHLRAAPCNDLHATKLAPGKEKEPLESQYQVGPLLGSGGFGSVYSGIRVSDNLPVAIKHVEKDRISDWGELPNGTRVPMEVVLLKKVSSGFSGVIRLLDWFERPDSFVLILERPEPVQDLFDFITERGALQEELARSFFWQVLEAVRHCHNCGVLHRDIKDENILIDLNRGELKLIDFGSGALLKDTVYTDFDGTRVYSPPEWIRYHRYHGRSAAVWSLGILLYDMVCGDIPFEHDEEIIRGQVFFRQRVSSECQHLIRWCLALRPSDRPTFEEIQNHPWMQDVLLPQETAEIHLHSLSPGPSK
MAPK3 (human), sequence (P27361 whole entry, looked up): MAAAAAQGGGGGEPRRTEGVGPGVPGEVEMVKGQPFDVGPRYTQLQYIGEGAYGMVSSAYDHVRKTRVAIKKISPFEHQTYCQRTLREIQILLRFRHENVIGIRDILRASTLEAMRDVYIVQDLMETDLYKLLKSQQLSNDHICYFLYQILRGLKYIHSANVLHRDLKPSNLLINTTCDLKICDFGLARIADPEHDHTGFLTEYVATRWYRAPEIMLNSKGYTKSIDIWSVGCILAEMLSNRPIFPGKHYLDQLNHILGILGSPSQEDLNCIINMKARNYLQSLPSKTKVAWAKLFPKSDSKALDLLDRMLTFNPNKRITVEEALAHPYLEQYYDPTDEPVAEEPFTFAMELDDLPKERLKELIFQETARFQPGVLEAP
NEK2 (human), sequence (P51955 whole entry, looked up): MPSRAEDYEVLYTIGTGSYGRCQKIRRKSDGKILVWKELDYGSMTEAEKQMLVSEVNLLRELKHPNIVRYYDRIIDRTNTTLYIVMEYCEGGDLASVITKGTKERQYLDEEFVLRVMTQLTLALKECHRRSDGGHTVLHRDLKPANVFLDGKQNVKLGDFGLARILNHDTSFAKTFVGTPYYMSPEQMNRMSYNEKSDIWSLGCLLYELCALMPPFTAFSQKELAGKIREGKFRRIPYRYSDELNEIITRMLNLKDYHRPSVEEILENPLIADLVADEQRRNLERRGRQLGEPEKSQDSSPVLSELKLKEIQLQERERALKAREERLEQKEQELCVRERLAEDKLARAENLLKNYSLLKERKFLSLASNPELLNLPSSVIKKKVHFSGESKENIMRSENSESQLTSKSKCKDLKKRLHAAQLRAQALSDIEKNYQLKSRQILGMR

With `CN[C@@H]1C[C@@H]2O[C@@](C)([C@@H]1OC)n1c3ccccc3c3c4c(c5c6ccccc6n2c5c31)C(=O)N[C@@H]4O` the residual activity (AKT2 (human); compound 0.01 µM) was 77%, the residual activity (AURKB (human); compound 0.01 µM) was 59% and the residual activity (BRSK2 (human); compound 0.01 µM) was 27%. The residual activity (CAMKK1 (human); compound 0.01 µM) was 58%, the residual activity (CHEK1 (human); compound 0.01 µM) was 12% and the residual activity ([1]; compound 0.01 µM) was 92%. For the same molecule, the residual activity (DYRK3 (human); compound 0.01 µM) was 84%, the residual activity (EEF2K (human); compound 0.01 µM) was 105% and the residual activity (GSK3B (human); compound 0.01 µM) was 77%. It also gave a residual activity (HIPK2 (human); compound 0.01 µM) of 109%, a residual activity (HIPK3 (human); compound 0.01 µM) of 116% and a residual activity (MAPK11 (human); compound 0.01 µM) of 105%. For the same molecule, the residual activity (MAPK12 (human); compound 0.01 µM) was 104%, the residual activity (MAPK3 (human); compound 0.01 µM) was 112% and the residual activity (MAPK8 (human); compound 0.01 µM) was 79%. For the same molecule, the residual activity (MKNK1 (human); compound 0.01 µM) was 85%, the residual activity (MYLK (human); compound 0.01 µM) was 83% and the residual activity (NEK2 (human); compound 0.01 µM) was 85%. The residual activity (PAK4 (human); compound 0.01 µM) was 33%, the residual activity (PIM1 (human); compound 0.01 µM) was 52% and the residual activity (PKN2 (human); compound 0.01 µM) was 10%. The residual activity ([2]; compound 0.01 µM) was 63%, the residual activity (PRKCA (human); compound 0.01 µM) was 6% and the residual activity ([3]; compound 0.01 µM) was 96%. It also gave a residual activity ([4]; compound 0.01 µM) of 83% and a residual activity (SRC (chicken); compound 0.01 µM) of 76%.
`O=S(=O)(NCCNC/C=C/c1ccc(Br)cc1)c1cccc2cnccc12` gave a residual activity (AKT2 (human); compound 1.0 µM) of 21%, a residual activity (AURKB (human); compound 1.0 µM) of 70% and a residual activity (BRSK2 (human); compound 1.0 µM) of 82%. It also gave a residual activity (CAMKK1 (human); compound 1.0 µM) of 102%, a residual activity (CDK2 CCNA2 (human); compound 1.0 µM) of 75% and a residual activity (CHEK1 (human); compound 1.0 µM) of 71%. It also gave a residual activity (DYRK3 (human); compound 1.0 µM) of 65%, a residual activity (EEF2K (human); compound 1.0 µM) of 102% and a residual activity (GSK3B (human); compound 1.0 µM) of 88%. The residual activity (HIPK2 (human); compound 1.0 µM) was 101%, the residual activity (HIPK3 (human); compound 1.0 µM) was 106% and the residual activity (MAPK1 (human); compound 1.0 µM) was 88%. It also gave a residual activity (MAPK11 (human); compound 1.0 µM) of 91%, a residual activity (MAPK3 (human); compound 1.0 µM) of 90% and a residual activity (MAPK8 (human); compound 1.0 µM) of 88%. It also gave a residual activity (MKNK1 (human); compound 1.0 µM) of 90%, a residual activity (MYLK (human); compound 1.0 µM) of 91% and a residual activity (NEK2 (human); compound 1.0 µM) of 102%. For the same molecule, the residual activity (PIM1 (human); compound 1.0 µM) was 90%, the residual activity (PKN2 (human); compound 1.0 µM) was 7% and the residual activity ([2]; compound 1.0 µM) was 15%. The residual activity (PRKCA (human); compound 1.0 µM) was 80%, the residual activity ([3]; compound 1.0 µM) was 11% and the residual activity ([4]; compound 1.0 µM) was 62%. It also gave a residual activity (SRC (chicken); compound 1.0 µM) of 100% and a residual activity (SRPK1 (human); compound 1.0 µM) of 93%.
`N#CC(=C(\N)Sc1ccccc1N)/C(C#N)=C(/N)Sc1ccccc1N` was tested, and the residual activity (AKT2 (human); compound 10.0 µM) was 98%, the residual activity (AURKB (human); compound 10.0 µM) was 86% and the residual activity (CDK2 CCNA2 (human); compound 10.0 µM) was 86%. It also gave a residual activity (CHEK1 (human); compound 10.0 µM) of 83%, a residual activity ([1]; compound 10.0 µM) of 99% and a residual activity (DYRK3 (human); compound 10.0 µM) of 77%. For the same molecule, the residual activity (EEF2K (human); compound 10.0 µM) was 116%, the residual activity (GSK3B (human); compound 10.0 µM) was 82% and the residual activity (HIPK2 (human); compound 10.0 µM) was 97%. For the same molecule, the residual activity (HIPK3 (human); compound 10.0 µM) was 87%, the residual activity (MAPK1 (human); compound 10.0 µM) was 68% and the residual activity (MAPK11 (human); compound 10.0 µM) was 91%. The residual activity (MAPK12 (human); compound 10.0 µM) was 90%, the residual activity (MAPK3 (human); compound 10.0 µM) was 72% and the residual activity (MAPK8 (human); compound 10.0 µM) was 90%. It also gave a residual activity (MKNK1 (human); compound 10.0 µM) of 78%, a residual activity (MYLK (human); compound 10.0 µM) of 95% and a residual activity (NEK2 (human); compound 10.0 µM) of 89%. For the same molecule, the residual activity (PAK4 (human); compound 10.0 µM) was 94%, the residual activity (PIM1 (human); compound 10.0 µM) was 87% and the residual activity (PKN2 (human); compound 10.0 µM) was 85%. For the same molecule, the residual activity ([2]; compound 10.0 µM) was 93%, the residual activity (PRKCA (human); compound 10.0 µM) was 95% and the residual activity ([3]; compound 10.0 µM) was 93%. It also gave a residual activity ([4]; compound 10.0 µM) of 72%, a residual activity (SRC (chicken); compound 10.0 µM) of 84% and a residual activity (SRPK1 (human); compound 10.0 µM) of 102%.

— the kinase profiling compilation of Christmann-Franck et al. (2016)
